From patent US8716282B2, “Imidazo[1,2-b]pyridazine derivatives and their use as PDE10 inhibitors” (Janssen Pharmaceutica NV, priority 2009, dated 2014)
Converted amounts (≈) assume the structure as drawn. Where two headings read alike, the source gives them in different places.

Tests used:
[1] = Intrinsic dissolution rate (IDR) of miniaturized pellets; format: physicochemical; settings: 37.0±0.5° C.; for Average IDR: 0.01M HCl at 100 rpm, miniaturized pellets; for intrinsic dissolution rate (IDR): pellets of 0.0754 cm^2
Experimental: The intrinsic dissolution rate was measured using a DISS Profiler™ system consisting in both a mini-bath and UV fiber optic (5 mm pathlength) probes connected to a photodiode array (PDA) spectrophotometer (from pION Inc). Each pellet prepared were positioned in individual vessels. The intrinsic dissolution test was performed using 0.01 M HCl (20 mL) maintained at 37.0±0.5° C. with a stirring rate of 100 rpm. The concentration measurements were performed using UV detection at 326 nm. The intrinsic dissolution rate (IDR) was calculated by dividing the dissolution rate by the exposure area of pellet (0.0754 cm^2).

[2] = molecular target: T1, Rat recombinant PDE10A (rPDE10A2) (Rattus norvegicus, UniProt Q9QYJ6); assay: In vitro assay PDE10A (SPA, 3H-cAMP); format: biochemical; settings: Table 3; −log IC50 expressed in mol/L
T1 construct: inferred from metal chelate purification; made in house; host or cells: Sf9 insect cells, baculovirus
T1 sequence (Q9QYJ6 1-794): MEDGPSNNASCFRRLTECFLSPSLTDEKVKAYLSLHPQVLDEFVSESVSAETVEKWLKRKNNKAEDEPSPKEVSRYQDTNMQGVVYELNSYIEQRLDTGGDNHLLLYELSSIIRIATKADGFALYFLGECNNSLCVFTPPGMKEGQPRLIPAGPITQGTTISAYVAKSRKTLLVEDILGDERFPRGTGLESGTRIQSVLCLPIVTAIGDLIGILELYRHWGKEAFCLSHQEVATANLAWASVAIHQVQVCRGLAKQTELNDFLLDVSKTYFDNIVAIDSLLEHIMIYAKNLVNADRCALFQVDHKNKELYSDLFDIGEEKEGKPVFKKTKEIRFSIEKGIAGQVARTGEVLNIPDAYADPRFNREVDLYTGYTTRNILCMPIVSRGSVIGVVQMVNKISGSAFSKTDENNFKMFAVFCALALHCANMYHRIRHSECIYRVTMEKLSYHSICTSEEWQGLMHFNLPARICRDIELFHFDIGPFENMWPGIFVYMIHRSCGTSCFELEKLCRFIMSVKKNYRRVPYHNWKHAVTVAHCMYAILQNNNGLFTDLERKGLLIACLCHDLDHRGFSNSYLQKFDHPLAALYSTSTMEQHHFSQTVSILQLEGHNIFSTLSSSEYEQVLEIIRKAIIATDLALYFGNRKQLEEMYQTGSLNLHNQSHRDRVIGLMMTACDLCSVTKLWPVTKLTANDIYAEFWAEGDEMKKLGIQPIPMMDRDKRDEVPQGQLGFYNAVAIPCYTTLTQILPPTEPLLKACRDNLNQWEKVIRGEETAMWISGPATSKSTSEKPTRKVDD
Experimental: Rat recombinant PDE10A (rPDE10A2) was expressed in Sf9 cells using a recombinant rPDE10A baculovirus construct. Cells were harvested after 48 h of infection and the rPDE10A protein was purified by metal chelate chromatography on Ni-sepharose 6FF. Tested compounds were dissolved and diluted in 100% DMSO to a concentration 100 fold of the final concentration in the assay. […] 10 μl of rPDE10A enzyme in incubation buffer was added and the reaction was started by addition of 10 μl substrate to a final concentration of 60 nM cAMP and 0.008 μCi ^3H-cAMP. The reaction was incubated for 60 minutes at room temperature. […] After sedimentation of the beads during 30 minutes the radioactivity was measured in a Perkin Elmer Topcount scintillation counter and results were expressed as cpm. For blanc values the enzyme was omitted from the reaction and replaced by incubation buffer. Control values were obtained by addition of a final concentration of 1% DMSO instead of compound. The same assay principle is applied for the measurement of the affinity of the compound for other members of the PDE family with appropriate modifications in incubation buffer, substrate concentration, incubation time and stop solution.

[3] = system: apomorphine-induced stereotypy in rats; assay: Apomorphine-induced stereotypy in rats (APO); format: in vivo, rat; settings: n.d. = found not active at threshold dose 2.5 mg/kg, or 10 mg/kg if (a)
Experimental: Apomorphine (1.0 mg/kg, i.v.)-induced stereotypy (compulsive sniffing, licking, chewing) was scored every 5 min over the first hour after injection of apomorphine, following a 1 hour interval pre-treatment with the test compound. The score system was: (3) pronounced, (2) moderate, (1) slight, and (0) absent.

[4] = Solubility as a function of pH at 20° C.; format: physicochemical
Experimental: After removing the undissolved compound (0.45 μm Millex LCR filter), the concentration in the solution was determined using UV spectrometry. The pH of the solution was measured.

[5] = system: novel object recognition in female hooded-Lister rats; assay: Object recognition test (NOR), sub-chronic PCP; format: in vivo, rat; settings: for effects of acute treatment in the NOR task: compound 1 0.3-1.0 mg/kg, PQ10 1.0 mg/kg, oral, 30 min prior to testing
Experimental: 60 female hooded-Lister rats (Charles River, UK) were used as subjects for these studies and weighed 248 g±20 g. Rats were allowed at least a 7-day acclimatization period to the animal unit prior to commencement of experimentation. Rats were housed in groups of 5 under standard laboratory conditions under a 12 h light:dark cycle, lights on at 0700 h. All testing was carried out in the light phase. Food and water were freely provided. All experiments were conducted in accordance with the Animals Scientific Procedures Act, U.K. 1986 and were approved by the University of Bradford ethical review panel.
40 mg of test compound was dissolved in 5 ml of 40% hydroxypropyl β-cyclodextrin (HPBC) solution. The solution was sonicated until completely dissolved. 2 ml of sterile water was added and the pH measured and adjusted with NaOH solution (0.1N) to obtain pH ˜4. Finally, sterile water was added to a final volume of 10 ml. This stock solution was then diluted in 20% HPBC to obtain the final concentrations.
100 mg of PQ10 was dissolved in a 40% HPBC solution and 8 mg of tartaric acid. The solution was sonicated until completely dissolved. 5 ml of sterile water was added and the pH measured and adjusted with NaOH solution (0.1N) to obtain pH ˜4. Finally sterile water was added to a final volume of 10 ml.
Test compound was administered at doses of 0.3 and 1.0 mg/kg via the oral route 30 min prior to testing.
PQ10 was administered at a dose of 1.0 mg/kg via the oral route 30 min prior to testing.
Certain pre-clinical tests allow the observation of relatively subtle cognitive deficits in the rat that resemble cognitive symptoms in subjects with schizophrenia. The cognitive deficits observed are seen in behaviours such as episodic memory, which can be measured by recognition tasks such as the novel object recognition (NOR) paradigm. A recognition memory task allows the comparison between presented stimuli and previously stored information. […] Object recognition in rats can be measured as the difference in time spent exploring the familiar and the new object. […]

[6] = Adsorption-desorption (dynamic vapor sorption); format: physicochemical; settings: for weight loss during the initial drying step: 60 min. under dry nitrogen at 25° C.; for hygroscopic behavior / physical form during the DVS test: DVS, 25° C., RH 0-95%

## COCCc1ccc(-c2c(C)nc3c(N4CCOCC4)ccnn23)cn1.O [Compound 1c, 3-[6-(2-methoxyethyl)-3-pyridinyl]-2-methyl-8-(4-morpholinyl)-imidazo[1,2-b]pyridazine monohydrate]
[1]
  Average IDR: 1.1011 mg · min^−1 · cm^−2
[1]; 0.01 M HCl, 100 rpm
  intrinsic dissolution rate (IDR): 1.10 mg·min^−1·cm^−2

## COCCOc1cncc(-c2c(C)nc3c(-c4ccncc4)ccnn23)c1 [Compound 149, 3-[5-(2-methoxyethoxy)-3-pyridinyl]-2-methyl-8-(4-pyridinyl)-imidazo[1,2-b]pyridazine]
[2]
  PDE10A2 pIC50: 6.82
[3]
  APO ED50 (mg/kg): n.d. (n.d. means the compound was found not active at 2.5 or at 10 mg/kg (the latter being indicated as (a)), taken as threshold value, and was not further tested.)

## COCCc1ccc(-c2c(C)nc3c(N4CCOCC4)ccnn23)cn1 [Compound 1, 3-[6-(2-methoxyethyl)-3-pyridinyl]-2-methyl-8-(4-morpholinyl)-imidazo[1,2-b]pyridazine]
[4]; aqueous buffer, thermodynamic from solid, borate-KCl—NaOH buffer pH 9, pH of solution 8.9, anhydrous free base
  solubility: 0.009 mg/mL (≈ 25.5 µM)
[4]; aqueous buffer, thermodynamic from solid, citrate-NaOH buffer pH 5, pH of solution 5.0, anhydrous free base
  solubility: 0.012 mg/mL (≈ 34 µM)
[4]; aqueous buffer, thermodynamic from solid, citrate-NaOH—HCl buffer pH 2, pH of solution 2.9, anhydrous free base
  solubility: 0.61 mg/mL (≈ 1730 µM)
[4]; aqueous buffer, thermodynamic from solid, phosphate buffer pH 7, pH of solution 7.0, anhydrous free base
  solubility: 0.008 mg/mL (≈ 22.6 µM)
[4]; aqueous buffer, thermodynamic from solid, phosphate-NaOH buffer pH 12, pH of solution 11.9, anhydrous free base
  solubility: 0.008 mg/mL (≈ 22.6 µM)
[4]; pH 2.5, simulated gastric fluid, thermodynamic from solid, 0.1N HCl, pH of solution 2.5, anhydrous free base
  solubility: 2.5 mg/mL (≈ 7070 µM)
[4]; pH 3, simulated gastric fluid, thermodynamic from solid, 0.01N HCl, pH of solution 3.0, anhydrous free base
  solubility: 0.32 mg/mL (≈ 905 µM)
[4]; pH 8.7, thermodynamic from solid, water, pH of solution 8.7, anhydrous free base
  solubility: 0.009 mg/mL (≈ 25.5 µM)
[4]; pH 12.9, aqueous buffer, thermodynamic from solid, 0.1N NaOH, pH of solution 12.9, anhydrous free base
  solubility: 0.008 mg/mL (≈ 22.6 µM)
[5]
  effects of acute treatment in the NOR task: selective for the retention phase of the NOR task
[6]
  weight loss during the initial drying step: 0.06%
  hygroscopic behavior: no hygroscopic behavior
  physical form during the DVS test: remained the same physical form
[1]
  Average IDR: 0.8170 mg · min^−1 · cm^−2
[1]; 0.01 M HCl, 100 rpm
  intrinsic dissolution rate (IDR): 0.82 mg·min^−1·cm^−2

## COc1cc2ncnc(N3CC[C@@H](Oc4cnc5ccccc5n4)C3)c2cc1OC [PQ10]
[5]; PCP + 1 mg/kg p.o., mean
  T2(A) exploration time of familiar object, retention trial: 7.9 s
[5]
  effects of acute treatment in the NOR task: selective for the retention phase of the NOR task

## COCCc1ccc(-c2c(C)nc3c(N4CCOCC4)ccnn23)cn1.O=P(O)(O)O [Compound 1d, 3-[6-(2-methoxyethyl)-3-pyridinyl]-2-methyl-8-(4-morpholinyl)-imidazo[1,2-b]pyridazine phosphate]
[4]; aqueous buffer, thermodynamic from solid, borate-KCl—NaOH buffer pH 9, pH of solution 7.4, phosphate salt, read-out: Solubility (mg/mL) of compound 1d
  solubility: 0.1 mg/mL
[4]; aqueous buffer, thermodynamic from solid, citrate-NaOH buffer pH 5, pH of solution 4.9, phosphate salt, read-out: Solubility (mg/mL) of compound 1d
  solubility: 0.14 mg/mL
[4]; aqueous buffer, thermodynamic from solid, citrate-NaOH—HCl buffer pH 2, pH of solution 2.5, phosphate salt, read-out: Solubility (mg/mL) of compound 1d
  solubility: 20.2 mg/mL
[4]; aqueous buffer, thermodynamic from solid, phosphate buffer pH 7, pH of solution 6.8, phosphate salt, read-out: Solubility (mg/mL) of compound 1d
  solubility: 0.09 mg/mL
[4]; aqueous buffer, thermodynamic from solid, phosphate-NaOH buffer pH 12, pH of solution 11.2, phosphate salt, read-out: Solubility (mg/mL) of compound 1d
  solubility: 0.1 mg/mL
[4]; in vitro results
  solubility compared to the anhydrous free base form (compound 1): much higher solubility
[4]; pH 2.1, simulated gastric fluid, thermodynamic from solid, 0.1N HCl, pH of solution 2.1, phosphate salt, read-out: Solubility (mg/mL) of compound 1d
  solubility: 46 mg/mL
[4]; pH 2.5, simulated gastric fluid, thermodynamic from solid, 0.01N HCl, pH of solution 2.5, phosphate salt, read-out: Solubility (mg/mL) of compound 1d
  solubility: 11.9 mg/mL
[4]; pH 2.6, thermodynamic from solid, water, pH of solution 2.6, phosphate salt, read-out: Solubility (mg/mL) of compound 1d
  solubility: 9.7 mg/mL
[4]; pH 12.5, aqueous buffer, thermodynamic from solid, 0.1N NaOH, pH of solution 12.5, phosphate salt, read-out: Solubility (mg/mL) of compound 1d
  solubility: 0.1 mg/mL
[6]
  weight loss during the initial drying step: 0.3%
  hygroscopic behavior: no hygroscopic behavior
  physical form during the DVS test: remains crystalline
[1]
  Average IDR: 2.5172 mg · min^−1 · cm^−2
[1]; 0.01 M HCl, 100 rpm
  time until pellets were totally dissolved: ≤ 10 min
  intrinsic dissolution rate (IDR): 2.52 mg·min^−1·cm^−2
